Source: ChEMBL document CHEMBL1124300, “Deletion sequences of salmon calcitonin that retain the essential biological and conformational features of the intact molecule” (1988)
Residues, ends and D or L forms follow the SMILES beside them.

Tested on: Rattus norvegicus
Test: In vivo hypocalcemic activity measuring the hormone-induced decrease of blood calcium levels in rats
Type: functional

Row | Compound | Hypocalcemic activity [IU mg-1]
1 | CC(C)C[C@H](NC(=O)[C@H](CCCCN)NC(=O)CNC(=O)[C@H](CC(C)C)NC(=O)[C@@H](NC(=O)[C@@H]1CSSC[C@H](N)C(=O)N[C@@H](CO)C(=O)N[C@@H](CC(N)=O)C(=O)N[C@@H](CC(C)C)C(=O)N[C@@H](CO)C(=O)N[C@@H]([C@@H](C)O)C(=O)N1)C(C)C)C(=O)N[C@@H](CO)C(=O)N[C@@H](CCC(N)=O)C(=O)N[C@@H](CCC(=O)O)C(=O)N[C@@H](CC(C)C)C(=O)N[C@@H](Cc1c[nH]cn1)C(=O)N[C@@H](CCCCN)C(=O)N[C@@H](Cc1ccc(O)cc1)C(=O)N1CCC[C@H]1C(=O)N[C@@H](CCCN=C(N)N)C(=O)N[C@H](C(=O)N[C@@H](CC(N)=O)C(=O)N[C@H](C(=O)NCC(=O)N[C@@H](CO)C(=O)NCC(=O)N[C@H](C(=O)N1CCC[C@H]1C(N)=O)[C@@H](C)O)[C@@H](C)O)[C@@H](C)O (HELM PEPTIDE1{C.S.N.L.S.T.C.V.L.G.K.L.S.Q.E.L.H.K.Y.P.R.T.N.T.G.S.G.T.P.[am]}$PEPTIDE1,PEPTIDE1,1:R3-7:R3$$$V2.0) | 7100
2 | CC(C)C[C@H](NC(=O)[C@H](CCCCN)NC(=O)CNC(=O)[C@H](CC(C)C)NC(=O)[C@@H](NC(=O)[C@@H]1CSSC[C@H](N)C(=O)N[C@@H](CO)C(=O)N[C@@H](CC(N)=O)C(=O)N[C@@H](CC(C)C)C(=O)N[C@@H](CO)C(=O)N[C@@H]([C@@H](C)O)C(=O)N1)C(C)C)C(=O)N[C@@H](CO)C(=O)N[C@@H](CCC(N)=O)C(=O)N[C@@H](CCC(=O)O)C(=O)N[C@@H](CC(C)C)C(=O)N[C@@H](Cc1c[nH]cn1)C(=O)N[C@@H](CCCCN)C(=O)N[C@@H](CCC(N)=O)C(=O)N[C@H](C(=O)N[C@@H](Cc1ccc(O)cc1)C(=O)N1CCC[C@H]1C(=O)N[C@@H](CCCN=C(N)N)C(=O)N[C@H](C(=O)N[C@@H](CC(N)=O)C(=O)N[C@H](C(=O)NCC(=O)N[C@@H](CO)C(=O)NCC(=O)N[C@H](C(=O)N1CCC[C@H]1C(N)=O)[C@@H](C)O)[C@@H](C)O)[C@@H](C)O)[C@@H](C)O (HELM PEPTIDE1{C.S.N.L.S.T.C.V.L.G.K.L.S.Q.E.L.H.K.Q.T.Y.P.R.T.N.T.G.S.G.T.P.[am]}$PEPTIDE1,PEPTIDE1,1:R3-7:R3$$$V2.0) | 8000
3 | CC(C)C[C@H](NC(=O)[C@H](CCCCN)NC(=O)CNC(=O)[C@H](CC(C)C)NC(=O)[C@@H](NC(=O)[C@@H]1CSSC[C@H](N)C(=O)N[C@@H](CO)C(=O)N[C@@H](CC(N)=O)C(=O)N[C@@H](CC(C)C)C(=O)N[C@@H](CO)C(=O)N[C@@H]([C@@H](C)O)C(=O)N1)C(C)C)C(=O)N[C@@H](CO)C(=O)N[C@@H](CCC(N)=O)C(=O)N[C@@H](CCC(=O)O)C(=O)N[C@@H](CC(C)C)C(=O)N[C@@H](Cc1c[nH]cn1)C(=O)N[C@@H](CCCCN)C(=O)N[C@@H](CC(C)C)C(=O)N[C@H](C(=O)N[C@@H](Cc1ccc(O)cc1)C(=O)N1CCC[C@H]1C(=O)N[C@@H](CCCN=C(N)N)C(=O)N[C@H](C(=O)N[C@@H](CC(N)=O)C(=O)N[C@H](C(=O)NCC(=O)N[C@@H](CO)C(=O)NCC(=O)N[C@H](C(=O)N1CCC[C@H]1C(N)=O)[C@@H](C)O)[C@@H](C)O)[C@@H](C)O)[C@@H](C)O (HELM PEPTIDE1{C.S.N.L.S.T.C.V.L.G.K.L.S.Q.E.L.H.K.L.T.Y.P.R.T.N.T.G.S.G.T.P.[am]}$PEPTIDE1,PEPTIDE1,1:R3-7:R3$$$V2.0) | 4000
4 | CC(C)C[C@H](NC(=O)[C@H](CCCCN)NC(=O)CNC(=O)[C@H](CC(C)C)NC(=O)[C@@H](NC(=O)[C@@H]1CSSC[C@H](N)C(=O)N[C@@H](CO)C(=O)N[C@@H](CC(N)=O)C(=O)N[C@@H](CC(C)C)C(=O)N[C@@H](CO)C(=O)N[C@@H]([C@@H](C)O)C(=O)N1)C(C)C)C(=O)N[C@@H](CO)C(=O)N[C@@H](CCC(N)=O)C(=O)N[C@@H](CCC(=O)O)C(=O)N[C@@H](CC(C)C)C(=O)N[C@@H](Cc1c[nH]cn1)C(=O)N[C@@H](CCCCN)C(=O)N[C@H](C(=O)N[C@@H](Cc1ccc(O)cc1)C(=O)N1CCC[C@H]1C(=O)N[C@@H](CCCN=C(N)N)C(=O)N[C@H](C(=O)N[C@@H](CC(N)=O)C(=O)N[C@H](C(=O)NCC(=O)N[C@@H](CO)C(=O)NCC(=O)N[C@H](C(=O)N1CCC[C@H]1C(N)=O)[C@@H](C)O)[C@@H](C)O)[C@@H](C)O)[C@@H](C)O (HELM PEPTIDE1{C.S.N.L.S.T.C.V.L.G.K.L.S.Q.E.L.H.K.T.Y.P.R.T.N.T.G.S.G.T.P.[am]}$PEPTIDE1,PEPTIDE1,1:R3-7:R3$$$V2.0) | 6400
5 | CC(C)C[C@H](NC(=O)[C@H](CCCCN)NC(=O)CNC(=O)[C@H](CC(C)C)NC(=O)[C@@H](NC(=O)[C@@H]1CSSC[C@H](N)C(=O)N[C@@H](CO)C(=O)N[C@@H](CC(N)=O)C(=O)N[C@@H](CC(C)C)C(=O)N[C@@H](CO)C(=O)N[C@@H]([C@@H](C)O)C(=O)N1)C(C)C)C(=O)N[C@@H](CO)C(=O)N[C@@H](CCC(N)=O)C(=O)N[C@@H](CCC(=O)O)C(=O)N[C@@H](CC(C)C)C(=O)N[C@@H](Cc1c[nH]cn1)C(=O)N[C@@H](CCCCN)C(=O)N1CCC[C@H]1C(=O)N[C@@H](CCCN=C(N)N)C(=O)N[C@H](C(=O)N[C@@H](CC(N)=O)C(=O)N[C@H](C(=O)NCC(=O)N[C@@H](CO)C(=O)NCC(=O)N[C@H](C(=O)N1CCC[C@H]1C(N)=O)[C@@H](C)O)[C@@H](C)O)[C@@H](C)O (HELM PEPTIDE1{C.S.N.L.S.T.C.V.L.G.K.L.S.Q.E.L.H.K.P.R.T.N.T.G.S.G.T.P.[am]}$PEPTIDE1,PEPTIDE1,1:R3-7:R3$$$V2.0) | 6300
6 | CC(C)C[C@H](NC(=O)[C@H](CCCCN)NC(=O)CNC(=O)[C@H](CC(C)C)NC(=O)[C@@H](NC(=O)[C@@H]1CSSC[C@H](N)C(=O)N[C@@H](CO)C(=O)N[C@@H](CC(N)=O)C(=O)N[C@@H](CC(C)C)C(=O)N[C@@H](CO)C(=O)N[C@@H]([C@@H](C)O)C(=O)N1)C(C)C)C(=O)N[C@@H](CO)C(=O)N[C@@H](CCC(N)=O)C(=O)N[C@@H](CCC(=O)O)C(=O)N[C@@H](CC(C)C)C(=O)N[C@@H](Cc1c[nH]cn1)C(=O)N[C@@H](CCCCN)C(=O)N[C@@H](CC(C)C)C(=O)N[C@@H](CCC(N)=O)C(=O)N[C@H](C(=O)N1CCC[C@H]1C(=O)N[C@@H](CCCN=C(N)N)C(=O)N[C@H](C(=O)N[C@@H](CC(N)=O)C(=O)N[C@H](C(=O)NCC(=O)N[C@@H](CO)C(=O)NCC(=O)N[C@H](C(=O)N1CCC[C@H]1C(N)=O)[C@@H](C)O)[C@@H](C)O)[C@@H](C)O)[C@@H](C)O (HELM PEPTIDE1{C.S.N.L.S.T.C.V.L.G.K.L.S.Q.E.L.H.K.L.Q.T.P.R.T.N.T.G.S.G.T.P.[am]}$PEPTIDE1,PEPTIDE1,1:R3-7:R3$$$V2.0) | 5200
7 | CC(C)C[C@H](NC(=O)[C@H](CCCCN)NC(=O)CNC(=O)[C@H](CC(C)C)NC(=O)[C@@H](NC(=O)[C@@H]1CSSC[C@H](N)C(=O)N[C@@H](CO)C(=O)N[C@@H](CC(N)=O)C(=O)N[C@@H](CC(C)C)C(=O)N[C@@H](CO)C(=O)N[C@@H]([C@@H](C)O)C(=O)N1)C(C)C)C(=O)N[C@@H](CO)C(=O)N[C@@H](CCC(N)=O)C(=O)N[C@@H](CCC(=O)O)C(=O)N[C@@H](CC(C)C)C(=O)N[C@@H](Cc1c[nH]cn1)C(=O)N[C@@H](CCCCN)C(=O)N[C@@H](CC(C)C)C(=O)N[C@@H](CCC(N)=O)C(=O)N[C@@H](Cc1ccc(O)cc1)C(=O)N1CCC[C@H]1C(=O)N[C@@H](CCCN=C(N)N)C(=O)N[C@H](C(=O)N[C@@H](CC(N)=O)C(=O)N[C@H](C(=O)NCC(=O)N[C@@H](CO)C(=O)NCC(=O)N[C@H](C(=O)N1CCC[C@H]1C(N)=O)[C@@H](C)O)[C@@H](C)O)[C@@H](C)O (HELM PEPTIDE1{C.S.N.L.S.T.C.V.L.G.K.L.S.Q.E.L.H.K.L.Q.Y.P.R.T.N.T.G.S.G.T.P.[am]}$PEPTIDE1,PEPTIDE1,1:R3-7:R3$$$V2.0) | 5500
8 | CC(C)C[C@H](NC(=O)[C@H](CCCCN)NC(=O)CNC(=O)[C@H](CC(C)C)NC(=O)[C@@H](NC(=O)[C@@H]1CSSC[C@H](N)C(=O)N[C@@H](CO)C(=O)N[C@@H](CC(N)=O)C(=O)N[C@@H](CC(C)C)C(=O)N[C@@H](CO)C(=O)N[C@@H]([C@@H](C)O)C(=O)N1)C(C)C)C(=O)N[C@@H](CO)C(=O)N[C@@H](CCC(N)=O)C(=O)N[C@@H](CCC(=O)O)C(=O)N[C@@H](CC(C)C)C(=O)N[C@@H](Cc1c[nH]cn1)C(=O)N[C@@H](CCCCN)C(=O)N[C@@H](CC(C)C)C(=O)N[C@@H](CCC(N)=O)C(=O)N[C@H](C(=O)N[C@@H](Cc1ccc(O)cc1)C(=O)N1CCC[C@H]1C(=O)N[C@@H](CCCNC(=N)N)C(=O)N[C@H](C(=O)N[C@@H](CC(N)=O)C(=O)N[C@H](C(=O)NCC(=O)N[C@@H](CO)C(=O)NCC(=O)N[C@H](C(=O)N1CCC[C@H]1C(N)=O)[C@@H](C)O)[C@@H](C)O)[C@@H](C)O)[C@@H](C)O [CALCITONIN SALMON] | 4500
